Results as given in paper PMC6214909, “An asparagine/glycine switch governs product specificity of human N-terminal methyltransferase NTMT2” (Communications Biology, 2018).
Entries after “also recorded” stand apart in the source; their conditions may differ. Like-named read-outs stand apart in the source and are kept apart here. Blank lines part the entries; values can stand above or below the molecule they belong to. Square brackets hold non-standard residues; d marks the D form. Ends that are not written are not given here. Peptide text beside a SMILES is read from it. NMeS = CN[C@@H](CO)C(=O)O; NMeA = CN[C@@H](C)C(=O)O

Legend:
NTMT2 [1] = molecular target: T1, NTMT2 (Homo sapiens, UniProt Q5VVY1); assay: Isothermal titration calorimetry, wild-type NTMT2 and peptide; format: binding
T1 construct: DNA encoding human NTMT2 (residues 58–278) was amplified by PCR; SUMO (His8-SUMO of the pET28-MKH8SUMO vector, with TEV site) (N, cleaved yes); made in house; host or cells: Escherichia coli BL21 (DE3)
Procedure: ITC measurements were performed in 20 mM Tris–HCl pH 7.5, 150 mM NaCl and 0.5 mM TCEP at 25 °C using MicroCal VP-ITC instrument. The final concentrations of protein and peptide were 50–80 μM and 0.6–1.2 mM, respectively. The peptide was titrated into the protein solution with 26 injections of 10 μL each. Injections were spaced 180 s with a reference power of 15 μcal s^−1. The ITC data were processed using Origin software.

RCC1 (Homo sapiens) = details: cited from earlier work
NTMT2 [2] = molecular target: T1, NTMT2; assay: MALDI-MS methyltransferase activity assay, NTMT2; format: biochemical; details: 2 μM NTMT2, 10 μM peptide, 200 μM SAM, 25 mM Tris–HCl pH 7.5, 50 mM KCl, 37 °C, overnight
Procedure: (§1) A mixture (36 μL) of 2 μM enzyme (NTMT1 or NTMT2), 25 mM Tris–HCl pH 7.5, 50 mM KCl and 200 μM SAM was incubated at 37 °C for 5 min. 4 μL of 100 μM peptide substrate (final concentration 10 μM) was then added to initiate the reaction. The reaction was incubated overnight and then stopped with quenching solution (20 mM NH4H2PO4, 0.4% (v/v) TFA in 1:1 acetonitrile/water). Reaction mixtures were analyzed with an Applied Biosystems Voyager matrix-assisted laser desorption/ionization time-of-flight mass spectrometer. Processing of all spectra results in Data Explorer included application of a noise filter (correlation factor of 1.0) and a baseline correction. Areas of the monoisotopic peaks for all relevant species were combined to obtain a total area for each sample. The fraction of each methylation state was calculated by summing the areas of all the monoisotopic peaks for that state ([M + H]^+, [M + Na]^+, [M + K]^+, [M – H + 2Na]^+, [M – H + 2 K]^+, and [M – H + Na + K]^+) and then dividing by the total area.

NTMT1 = assay: MALDI-MS methyltransferase activity assay, NTMT1; format: biochemical, human; details: 2 μM NTMT1, 10 μM peptide, 200 μM SAM, 25 mM Tris–HCl pH 7.5, 50 mM KCl, 37 °C, overnight
Procedure: as §1

NTMT2-N89G mutant = assay: MALDI-MS methyltransferase activity assay, NTMT2-N89G mutant; format: biochemical, human; details: NTMT2-N89G under the same conditions (2 μM enzyme, 10 μM peptide, 200 μM SAM, pH 7.5, 37 °C, overnight)
Procedure: as §1

[3] = molecular target: T2, NTMT2 (residues 58–278) N89G mutant (human, UniProt Q5VVY1 58-278, N89G); assay: ITC; peptide (0.6–1.2 mM) titrated into protein (50–80 μM); 20 mM Tris–HCl pH 7.5, 150 mM NaCl, 0.5 mM TCEP, 25 °C; MicroCal VP-ITC; details: both partners purified
T2 construct: N-terminal methyltransferase NTMT2 (METTL11B/NRMT2), human, residues 58-278; also called NTMT2-N89G; source: E. coli BL21 (DE3), purified with the same protocol as wild type; not shown: SUMO, N-terminal, cleaved

[4] = ITC, wild-type NTMT2, 20 mM Tris–HCl pH 7.5, 150 mM NaCl, 0.5 mM TCEP, 25 °C, ND = no detectable binding

T1 sequence (Q5VVY1 58-278): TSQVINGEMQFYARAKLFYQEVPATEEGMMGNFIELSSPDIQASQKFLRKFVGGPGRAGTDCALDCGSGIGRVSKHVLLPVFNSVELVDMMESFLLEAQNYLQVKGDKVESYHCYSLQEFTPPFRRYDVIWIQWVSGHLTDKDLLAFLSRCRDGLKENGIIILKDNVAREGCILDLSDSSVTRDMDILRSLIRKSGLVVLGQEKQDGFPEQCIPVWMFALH
T2 sequence (Q5VVY1 58-278 N89G): as the sequence (Q5VVY1 58-278) above, with N32G counted along it

Molecule: CC[C@H](C)[C@H](NC(=O)[C@H](CCCNC(=N)N)NC(=O)[C@H](CCCCN)NC(=O)[C@@H]1CCCN1C(=O)[C@H](C)NC)C(=O)N[C@@H](C)C(=O)O [Ame1PKRIA] (H-[NMeA]PKRIA-OH)
Kd (NTMT2 [1]; [4]): no detectable binding; also recorded: does not bind

Molecule: CC[C@H](C)[C@H](NC(=O)[C@H](CCCNC(=N)N)NC(=O)[C@H](CCCCN)NC(=O)[C@@H]1CCCN1C(=O)[C@H](CO)NC)C(=O)N[C@@H](C)C(=O)O [Sme1PKRIA] (H-[NMeS]PKRIA-OH)
Kd (NTMT2 [1]; [4]): barely demonstrated any binding affinity; also recorded: does not bind

Molecule: NTMT1 (from UniProt Q9BV86)
Kd (RCC1 (Homo sapiens)): 0.8 µM

Di-methylated fraction (NTMT2 [2]): 0.00%
Mono-methylated fraction (NTMT2 [2]): 23.35%
Trimethylated fraction (NTMT2 [2]): 0.00%
Unmethylated fraction (NTMT2 [2]): 76.65%
Di-methylated fraction (NTMT1): 98.24%
Mono-methylated fraction (NTMT1): 0.00%
Trimethylated fraction (NTMT1): 1.76%
Unmethylated fraction (NTMT1): 0.00%
Di-methylated fraction (NTMT2-N89G mutant): 0.00%
Mono-methylated fraction (NTMT2-N89G mutant): 47.86%
Trimethylated fraction (NTMT2-N89G mutant): 0.00%
Unmethylated fraction (NTMT2-N89G mutant): 52.14%
Molecule: RPKRIA [synthetic XPKRIA hexapeptide substrate, X = R]

Di-methylated fraction (NTMT2 [2]): 0.00%
Mono-methylated fraction (NTMT2 [2]): 46.39%
Trimethylated fraction (NTMT2 [2]): 0.00%
Unmethylated fraction (NTMT2 [2]): 53.61%
Kd (NTMT2 [1]; read-out: Kd): 18 µM
Molecule: SPKRIA [SPKRIA]

Di-methylated fraction (NTMT2 [2]): 0.00%
Mono-methylated fraction (NTMT2 [2]): 0.00%
Trimethylated fraction (NTMT2 [2]): 0.00%
Unmethylated fraction (NTMT2 [2]): 100.00%
Di-methylated fraction (NTMT1): 33.51%
Mono-methylated fraction (NTMT1): 40.04%
Trimethylated fraction (NTMT1): 0.00%
Unmethylated fraction (NTMT1): 26.44%
Di-methylated fraction (NTMT2-N89G mutant): 0.00%
Mono-methylated fraction (NTMT2-N89G mutant): 11.78%
Trimethylated fraction (NTMT2-N89G mutant): 0.00%
Unmethylated fraction (NTMT2-N89G mutant): 88.22%
Molecule: TPKRIA [synthetic XPKRIA hexapeptide substrate, X = T]

Di-methylated fraction (NTMT2 [2]): 0.00%
Mono-methylated fraction (NTMT2 [2]): 0.00%
Trimethylated fraction (NTMT2 [2]): 0.00%
Unmethylated fraction (NTMT2 [2]): 100.00%
Di-methylated fraction (NTMT1): 45.70%
Mono-methylated fraction (NTMT1): 54.30%
Trimethylated fraction (NTMT1): 0.00%
Unmethylated fraction (NTMT1): 0.00%
Di-methylated fraction (NTMT2-N89G mutant): 0.00%
Mono-methylated fraction (NTMT2-N89G mutant): 4.18%
Trimethylated fraction (NTMT2-N89G mutant): 0.00%
Unmethylated fraction (NTMT2-N89G mutant): 95.82%
Molecule: VPKRIA [synthetic XPKRIA hexapeptide substrate, X = V]

Di-methylated fraction (NTMT2 [2]): 0.00%
Mono-methylated fraction (NTMT2 [2]): 36.35%
Trimethylated fraction (NTMT2 [2]): 0.00%
Unmethylated fraction (NTMT2 [2]): 63.65%
Di-methylated fraction (NTMT1): 17.46%
Mono-methylated fraction (NTMT1): 67.03%
Trimethylated fraction (NTMT1): 0.00%
Unmethylated fraction (NTMT1): 15.51%
Di-methylated fraction (NTMT2-N89G mutant): 0.00%
Mono-methylated fraction (NTMT2-N89G mutant): 100.00%
Trimethylated fraction (NTMT2-N89G mutant): 0.00%
Unmethylated fraction (NTMT2-N89G mutant): 0.00%
Molecule: WPKRIA [synthetic XPKRIA hexapeptide substrate, X = W]

Di-methylated fraction (NTMT2 [2]): 0.00%
Mono-methylated fraction (NTMT2 [2]): 23.72%
Trimethylated fraction (NTMT2 [2]): 0.00%
Unmethylated fraction (NTMT2 [2]): 76.28%
Di-methylated fraction (NTMT1): 100.00%
Mono-methylated fraction (NTMT1): 0.00%
Trimethylated fraction (NTMT1): 0.00%
Unmethylated fraction (NTMT1): 0.00%
Di-methylated fraction (NTMT2-N89G mutant): 0.00%
Mono-methylated fraction (NTMT2-N89G mutant): 87.50%
Trimethylated fraction (NTMT2-N89G mutant): 0.00%
Unmethylated fraction (NTMT2-N89G mutant): 12.50%
Molecule: YPKRIA [synthetic XPKRIA hexapeptide substrate, X = Y]

Kd [3]: 36 µM
B1: Sme1PKRIA peptide (methylated SPKRIA) (peptide)
peptide: [NMeS]PKRIA
notes: N-terminal hexapeptide of regulator of chromatin condensation 1 (RCC1), without the initiator methionine, alpha-N-monomethylated; also called mono-methylated SPKRIA

Kd [3]: 32 µM
B2: Ame1PKRIA peptide (peptide)
peptide: [NMeA]PKRIA
notes: XPKRIA peptide derived from the RCC1 N-terminal hexapeptide SPKRIA, with alanine at the first position, alpha-N-monomethylated; also called mono-methylated APKRIA
